From patent US20070149508A1, “Six membered heteroaromatic inhibitors targeting resistant kinase mutations” (TargeGen, Inc., priority 2005, published 2007) come the findings set out here.

The structures appear in SMILES notation. Where a name gives a salt, the structure may show the parent alone.

One assay has as its target Abl kinase (Homo sapiens, UniProt P00519). As to the kind of experiment: biochemical. As to conditions: Abl IC50 (nM), Abl kinase (Invitrogen, 20 ng/well), Abltide 100 μM, ATP 500 nM, 37° C. for 60 minutes, top concentration 10 uM.
In a further assay the target is T1, Abl (T315I) (Homo sapiens, UniProt P00519, T315I).
T1 construct: purchased Upstate
The assay is described as follows: Abl (T315I) Kinase Assay (KinaseGlo luminescent detection of residual ATP). Format: biochemical. The conditions noted are these: Abl (T315I) IC50 (nM), Abl (T315I) (Upstate, 17 ng/well), Abltide 100 uM, ATP 500 nM, 60 minutes at 37° C. The method, then:
The assay was performed similarly to the Abl kinase assay. Abl (T315I) (Upstate, 17 ng/well); Abltide substrate (100 uM) and ATP (500 nM) comprised the reaction mixture. Compound was similarly diluted, and the reaction plate was incubated for 60 minutes at 37° C.

One may read the IC50 as the concentration at which inhibition is half-maximal. A high value points to weaker potency. As to `NS(=O)(=O)c1cccc(/C=C/c2cnc(Nc3ccc(S(=O)(=O)C4CCNCC4)cc3)nc2)c1` [3-(2-{2-[4-(Piperidine-4-sulfonyl)-phenylamino]-pyrimidin-5-yl}-vinyl)-benzenesulfonamide Hydrochloride], the IC50 against Abl kinase was found to be 198 nM; at Abl (T315I) it was 2070 nM.
For `O=S(=O)(NCCCO)c1ccc(Nc2ncc(/C=C/c3cccc(O)c3)cn2)cc1` [4-{5-[2-(3-Hydroxy-phenyl)-vinyl]-pyrimidin-2-ylamino}-N-(3-hydroxy-propyl)-benzenesulfonamide], in that order: 8.9 nM and 112 nM.
Taken in the same sequence, the figures for `Nc1nc2ccc(/C=C/c3cnc(Nc4ccc(S(=O)(=O)C5CCNCC5)cc4)nc3)cc2s1` [6-[(E)-2-(2-{[4-(piperidin-4-ylsulfonyl)phenyl]amino}pyrimidin-5-yl)vinyl]-1,3-benzothiazol-2-amine trifluoroacetic acid salt] were 50 nM and 58 nM.
Turning to `O=S(=O)(c1ccc(Nc2ccc(/C=C/c3cccc(O)c3)cn2)cc1)C1CCNCC1` [3-((E)-2-(6-(4-(piperidin-4-ylsulfonyl)phenylamino)pyridin-3-yl)vinyl)phenol hydrochloride], the figures for the IC50 against Abl kinase and on Abl (T315I) were 32 nM and 192 nM, respectively.
As for `O=S(=O)(NC1CCNCC1)c1ccc(Nc2ncc(/C=C/c3cccc(O)c3)cn2)cc1` [4-{5-[2-(3-Hydroxy-phenyl)-vinyl]-pyrimidine-2-ylamino}-N-piperdin-4-yl-benzenesulfonamide Hydrochloride], the IC50 against Abl kinase was found to be 4.6 nM; against Abl (T315I), 36 nM.
On to `O=S(=O)(NC1CCNCC1)c1ccc(Nc2ncc(/C=C/c3cccc4[nH]ncc34)cn2)cc1` [4-{5-[2-(1H-Indazol-4-yl)-vinyl]-pyrimidin-2-ylamino}-N-piperidin-4-yl-benzenesulfonamide hydrochloride], for which the IC50 was 6.2 nM at Abl kinase and 176 nM on Abl (T315I).
Taken in the same sequence, the figures for `Nc1nc2ccc(/C=C/c3cnc(Nc4ccc(SCCN5CCOCC5)cc4)nc3)cc2s1` [6-(2-{2-[4-(2-Morpholin-4-yl-ethylsulfanyl)-phenylamino]-pyrimidin-5-yl}-vinyl)-benzothiazol-2-ylamine] were 630 nM and 1200 nM.
Taken in the same sequence, the figures for `O=S(=O)(CC1CCNCC1)c1ccc(Nc2ncc(/C=C/c3cccc(O)c3)cn2)cc1` [3-(2-{2-[4-(Piperidin-4-ylmethanesulfonyl)-phenylamino]-pyrimidin-5-yl}-vinyl)-phenol] were 31 nM and 96 nM.
For `O=S(=O)(CCCN1CCCC1)c1ccc(Nc2ncc(/C=C/c3cccc4[nH]ccc34)cn2)cc1` [5-[(E)-2-(1H-indol-4-pyrrolidin-1-ylpropyl)sulfonyl]phenyl}pyrimidin-2-amine], in that order: 13 nM and 386 nM.
For the compound `O=S(=O)(c1ccc(Nc2ncc(/C=C/c3ccc(-c4nnn[nH]4)cc3)cn2)cc1)C1CCNCC1` [5-((E)-4-(1H-tetrazol-5-ylsulfonyl)phenyl)pyrimidin-yl)styryl)-N-(4-(piperidin-4-2-amine hydrochloride], the figures for the half-inhibitory concentration (IC50) at Abl kinase and at Abl (T315I) were 3260 nM and 4180 nM, respectively.
For `O=S(=O)(c1ccc(Nc2ncc(/C=C/c3cc(C(F)(F)F)cc4[nH]cnc34)cn2)cc1)C1CCNCC1` [5-((E)-2-(6-(trifluoromethyl)-1H-benzo[d]imidazol-4-yl)vinyl)-N-(4-(piperidin-4-ylsulfonyl)phenyl)pyrimidin-2-amine.], in that order: 245 nM and 666 nM.
Taken in the same sequence, the figures for `O=S(=O)(c1ccc(Nc2ncc(/C=C/c3cccc(O)c3)cn2)cc1C(F)(F)F)N1CCNCC1` [3-(2-{2-[4-(Piperazine-1-sulfonyl)-3-trifluoromethyl-phenylamino]-pyrimidin-5-yl}-vinyl)-phenol] were 222 nM and 1410 nM.
`O=S(=O)(c1ccc(Nc2ncc(/C=C/c3cc(C(F)(F)F)cc4[nH]nnc34)cn2)cc1)C1CCNCC1` [5-((E)-2-(6-(trifluoromethyl)-1H-benzo[d][1,2,3]triazol-4-yl)vinyl)-N-(4-(piperidin-4-ylsulfonyl)phenyl)pyrimidin-2-amine]: the IC50 amounted to 130 nM against Abl kinase and 70 nM at Abl (T315I).
Turning to `COCCN1CCN(S(=O)(=O)c2ccc(Nc3ncc(/C=C/c4ccc5nc(N)sc5c4)cn3)cc2)CC1` [6-[2-(2-{4-[4-(2-Methoxy-ethyl)-piperazine-1-sulfonyl]-phenylamino}-pyrimidin-5-yl)-vinyl]-benzothiazol-2-ylamine], the IC50 against Abl kinase came out at 1150 nM; against Abl (T315I), 380 nM.
For `C=Cc1cnc(Nc2ccc(S(=O)(=O)C3CCN(C)CC3)cc2)nc1` [N-(4-(1-methylpiperidin-4-ylsulfonyl)phenyl)-5-vinylpyrimidin-2-amine], in that order: 4250 nM and 1570 nM.
For `Nc1nc2cc(C(F)(F)F)cc(/C=C/c3cnc(Nc4ccc(S(=O)(=O)C5CCNCC5)cc4)nc3)c2[nH]1` [7-((E)-2-(2-(4-(piperidin-4-ylsulfonyl)phenylamino)pyrimidin-5-yl)vinyl)-5-(trifluoromethyl)-1H-benzo[d]imidazol-2-amine], in that order: 130 nM and 254 nM.
Take `C=Cc1cnc(Nc2ccc(S(=O)(=O)C3CCNCC3)cc2)nc1` [N-(4-(piperidin-4-ylsulfonyl)phenyl)-5-vinylpyrimidin-2-amine trifluoroacetate]: the IC50 on Abl kinase was 1390 nM; against Abl (T315I) it was 368 nM.
Turning to `Nc1nc2ccc(/C=C/c3cnc(Nc4ccc(C(=O)N5CCNCC5)cc4)nc3)cc2s1` [(4-{5-[2-(2-Amino-benzothiazol-6-yl)-vinyl]-pyrimidin-2-ylamino}-phenyl)-piperazin-1-yl-methanone], the IC50 at Abl kinase was 360 nM; against Abl (T315I), 87 nM.
For the compound `O=C(Nc1cccc(/C=C/c2cnc(Nc3ccc(S(=O)(=O)C4CCNCC4)cc3)nc2)c1)c1cccc(C(F)(F)F)c1` [N-(3-((E)-2-(2-(4-(piperidin-4-ylsulfonyl)phenylamino)pyrimidin-5-yl)vinyl)phenyl)-3-(trifluoromethyl)benzamide Hydrochloride], the values for the IC50 against Abl kinase and against Abl (T315I) were 17 nM and 1280 nM, respectively.
On to `Nc1nc2ccc(/C=C/c3cnc(Nc4ccc(S(=O)(=O)N5CCC(O)CC5)cc4)nc3)cc2s1` [(E)-1-(4-(5-(2-(2-aminobenzo[d]thiazol-6-yl)vinyl)pyrimidin-2-ylamino)phenylsulfonyl)piperidin-4-ol], for which the IC50 is 922 nM against Abl kinase and 317 nM against Abl (T315I).
As to `O=C(Nc1ccc(/C=C/c2cnc(Nc3ccc(S(=O)(=O)C4CCNCC4)cc3)nc2)cc1)c1cccc(C(F)(F)F)c1` [N-(4-((E)-2-(2-(4-(piperidin-4-ylsulfonyl)phenylamino)pyrimidin-5-yl)vinyl)phenyl)-3-(trifluoromethyl)benzamide Hydrochloride], the IC50 on Abl kinase was determined as 506 nM; against Abl (T315I), 1010 nM.
As to `Nc1nc2ccc(/C=C/c3cnc(Nc4ccc(S(=O)(=O)N5CCNCC5)c(N5CCNCC5)c4)nc3)cc2s1` [6-[(E)-2-(2-{[3-piperazin-1-yl-4-(piperazin-1-ylsulfonyl)phenyl]amino}pyrimidin-5-yl)vinyl]-1,3-benzothiazol-2-amine], the IC50 came out at 318 nM against Abl kinase and 152 nM at Abl (T315I).
Taken in the same sequence, the figures for `O=S(=O)(c1ccc(Nc2ncc(/C=C/c3cc(Cl)cc4[nH]nnc34)cn2)cc1)N1CCCNCC1` [[4-([1,4]Diazepane-1-sulfonyl)-phenyl]-{5-[2-(6-chloro-1H-benzotriazol-4-yl)-vinyl]-pyrimidin-2-yl}-amine] were 41 nM and 16 nM.
For the compound `C(=C\c1cccc2[nH]ccc12)/c1cnc(Nc2ccc(C3CCNCC3)cc2)nc1` [{5-[2-(1H-Indol-4-yl)-vinyl]-pyrimidin-2-yl}-(4-piperidin-4-yl-phenyl)-amine], the IC50 turned out to be 42 nM against Abl kinase and 1320 nM against Abl (T315I).
For the compound `O=S(=O)(c1ccc(Nc2ncc(/C=C/c3cccc4[nH]ncc34)cn2)cc1)N(CCO)C1CCNCC1` [N-(2-hydroxyethyl)-4-({5-[(E)-2-(1H-indazol-4-yl)vinyl]pyrimidin-2-yl}amino)-N-piperidin-4-ylbenzenesulfonamide], the IC50 against Abl kinase was determined as 77 nM; at Abl (T315I), 251 nM.
Taken in the same sequence, the figures for `O=S(=O)(c1ccc(Nc2ncc(/C=C/c3cc(Cl)cc4[nH]nnc34)cn2)cc1)N1CCNCC1` [[4-(Piperazine-1-sulfonyl)-phenyl]-{5-[2-(6-chloro-1H-benzotriazol-4-yl)-vinyl]-pyrimidin-2-yl}-amine] were 61 nM and 21 nM.
As to `O=S(=O)(c1ccc(Nc2ncc(/C=C/c3cc(C(F)(F)F)cc4[nH]nnc34)cn2)cc1)N1CCNCC1` [[4-(Piperazine-1-sulfonyl)-phenyl]-{5-[2-(6-trifluoromethyl-1H-benzotriazol-4-yl)-vinyl]-pyrimidin-2-yl}-amine], the IC50 came to 269 nM against Abl kinase and 89 nM at Abl (T315I).
For `Nc1cc(C(F)(F)F)cc(/C=C/c2cnc(Nc3ccc(S(=O)(=O)C4CCNCC4)cc3)nc2)c1N` [3-((E)-2-(2-(4-(piperidin-4-ylsulfonyl)phenylamino)pyrimidin-5-yl)vinyl)-5-(trifluoromethyl)benzene 1,2-diamine.], in that order: 210 nM and 522 nM.
As to `NS(=O)(=O)c1cccc(/C=C/c2cnc(Nc3ccc(S(=O)(=O)N4CCCNCC4)cc3)nc2)c1` [3-(2-{2-[4-([1,4]Diazepane-1-sulfonyl)-phenylamino]-pyrimidin-5-yl}-vinyl)-benzenesulfonamide], the concentration for half-maximal inhibition (IC50) came out at 781 nM at Abl kinase and 2440 nM on Abl (T315I).
